Laboratory results: paper PMC11822212, “High-throughput screening identifies Aurora kinase B as a critical therapeutic target for Merkel cell carcinoma” (Nature Communications, 2025)
Like-named read-outs stand apart in the source and are kept apart here.

Experiments:
[1] = tested on: MCC13 cells (VN-MCC); experiment: qHTS cell viability (CellTiter-Glo, 72 h; primary and follow-up small molecule screen); type: cell-based, human
[2] = tested on: MCC26 cells (VN-MCC); experiment: as above; type: cell-based, human
[3] = tested on: UISO cells (VN-MCC); experiment: as above; type: cell-based, human
[4] = tested on: WAGA cells (VP-MCC); experiment: as above; type: cell-based, human
[5] = tested on: MKL-1 cells (VP-MCC); experiment: as above; type: cell-based, human
[6] = tested on: MKL-2 cells (VP-MCC); experiment: as above; type: cell-based, human
[7] = tested on: HACAT cells; experiment: qHTS cell viability (CellTiter-Glo, 72 h; primary screen), control cell line; type: cell-based, human
[8] = tested on: HEK293T cells; experiment: as above; type: cell-based, human
[9] = tested on: NIH-3T3 cells; experiment: as above; type: cell-based, mouse
[10] = tested on: CRL-7250 cells; experiment: as above; type: cell-based
[11] = tested on: MCC cell lines (WAGA, MKL-1, MKL-2, MCC13, MCC26, UISO); experiment: qHTS cell viability, all six MCC cell lines as a group (mean AUC, MCC.avg); type: cell-based, human
[12] = tested on: VP-MCC cell lines (WAGA, MKL-1, MKL-2); experiment: qHTS cell viability, VP-MCC cell lines as a group (mean AUC, VP.MCC.avg); type: cell-based, human
[13] = tested on: VN-MCC cell lines (MCC13, MCC26, UISO); experiment: qHTS cell viability, VN-MCC cell lines as a group (mean AUC, VN.MCC.avg); type: cell-based, human
[14] = tested on: control cell lines (HACAT, HEK293T, CRL-7250, NIH-3T3); experiment: qHTS cell viability, control cell lines as a group (mean AUC, Control.avg); type: cell-based
[15] = tested on: six MCC cell lines and four control cell lines; experiment: qHTS cell viability, all 10 cell lines screened; type: cell-based
[16] = NPC library, qHTS dose-response AUC, MCC13
[17] = NPC library, qHTS dose-response AUC, MCC26
[18] = NPC library, qHTS dose-response AUC, UISO
[19] = NPC library, qHTS dose-response AUC, WAGA
[20] = NPC library, qHTS dose-response AUC, MKL1
[21] = NPC library, qHTS dose-response AUC, MKL2
[22] = NPC library, qHTS dose-response AUC, HACAT control
[23] = NPC library, qHTS dose-response AUC, HEK293T control
[24] = NPC library; qHTS dose-response AUC, HEK293T control
[25] = NPC library, qHTS dose-response AUC, NIH3T3 control
[26] = NPC library, qHTS dose-response AUC, CRL7250 control
[27] = NPC library, mean AUC of all 6 MCC cell lines
[28] = NPC library, mean AUC of six MCC cell lines
[29] = NPC library, mean AUC of VP-MCC cell lines
[30] = NPC library, therapeutic window: Control avg AUC minus VP-MCC avg AUC
[31] = NPC library, mean AUC of VN-MCC cell lines
[32] = NPC library, therapeutic window: Control avg AUC minus VN-MCC avg AUC
[33] = NPC library, mean AUC of control cell lines
[34] = NPC library, therapeutic window: Control avg AUC minus MCC avg AUC
[35] = MIPE library, 11-point DRC, sheet S2E
[36] = MIPE library, 11-point DRC, control cell line, sheet S2E

CCCCCCCCOc1ccccc1C(=O)Nc1ccc(C(=O)OCC[N+](C)(CC)CC)cc1 [Octylonium bromide]
MCC13_AUC [1, 16]: 437.863 | MCC26_AUC [2, 17]: 427.666 | UISO_AUC [3, 18]: 389.713 | WAGA_AUC [4, 19]: 419.958 | MKL1_AUC [5, 20]: 364.23 | MKL2_AUC [6, 21]: 359.851 | HACAT_AUC [7, 22]: 466.719 | HEK293T_AUC [8, 23]: 439.212 | HEK293T_AUC [8, 24]: 439.213 | NIH3T3_AUC [9, 25]: 470.129 | CRL7250_AUC [10, 26]: 483.471 | MCC_Avg_AUC [11, 27]: 399.88 | MCC_Avg_AUC [11, 28]: 399.88 | Control-VP-MCC ([12]; Control AUC minus VP-MCC AUC): 83.5367 | VP-MCC_Avg_AUC [12, 29]: 381.346 | Control-VP-MCC [12, 30]: 83.5367 | Control-VN-MCC ([13]; Control AUC minus VN-MCC AUC): 46.4688 | VN-MCC_Avg_AUC [13, 31]: 418.414 | Control-VN-MCC [13, 32]: 46.4688 | Control_Avg_AUC [14, 33]: 464.883 | Control-MCC [15, 34]: 65.0028

C=CCC1([C@H](C)CCC)C(=O)NC(=O)NC1=O [S-(-)-Secobarbital]
MCC13_AUC [1]: 460.136 | MCC26_AUC [2]: 414.278 | UISO_AUC [3]: 438.072 | WAGA_AUC [4]: 434.137 | MKL1_AUC [5]: 441.594 | MKL2_AUC [6]: 429.062 | HACAT_AUC [7]: 491.817 | HEK293T_AUC [8]: 485.529 | NIH3T3_AUC [9]: 473.981 | CRL7250_AUC [10]: 492.207 | MCC_Avg_AUC [11]: 436.213 | Control-VP-MCC [12]: 50.9524 | VP-MCC_Avg_AUC [12]: 434.931 | Control-VN-MCC [13]: 48.3879 | VN-MCC_Avg_AUC [13]: 437.495 | Control_Avg_AUC [14]: 485.883 | Control-MCC [15]: 49.6701

[H]/N=C(\N/C(=N/[H])NCCCCCCNC(=N)NC(=N)Nc1ccc(Cl)cc1)Nc1ccc(Cl)cc1 [Chlorhexidine]
MCC13_AUC [1, 16]: 433.192 | MCC26_AUC [2, 17]: 406.333 | UISO_AUC [3, 18]: 378.135 | WAGA_AUC [4, 19]: 400.622 | MKL1_AUC [5, 20]: 377.448 | MKL2_AUC [6, 21]: 345.753 | HACAT_AUC [7, 22]: 458.563 | HEK293T_AUC [8, 23]: 398.25 | NIH3T3_AUC [9, 25]: 459.651 | CRL7250_AUC [10, 26]: 454.576 | MCC_Avg_AUC [11, 27]: 390.247 | MCC_Avg_AUC [11, 28]: 390.247 | Control-VP-MCC ([12]; Control AUC minus VP-MCC AUC): 68.1526 | VP-MCC_Avg_AUC [12, 29]: 374.608 | Control-VP-MCC [12, 30]: 68.1526 | Control-VN-MCC ([13]; Control AUC minus VN-MCC AUC): 36.8736 | VN-MCC_Avg_AUC [13, 31]: 405.887 | Control-VN-MCC [13, 32]: 36.8736 | Control_Avg_AUC [14, 33]: 442.76 | Control-MCC [15, 34]: 52.5131

CCNC(=O)Nc1ccc2ncc(Nc3ccc(C)cc3)nc2n1 [D-106669]
MCC13_AUC [1, 35]: 484.886 | MCC26_AUC [2, 35]: 446.547 | UISO_AUC [3, 35]: 355.75 | WAGA_AUC [4, 35]: 400.326 | MKL1_AUC [5, 35]: 400.108 | MKL2_AUC [6, 35]: 431.031 | HACAT_AUC [7, 36]: 474.569 | HEK293T_AUC [8, 36]: 479.506 | NIH3T3_AUC [9, 36]: 467.724 | CRL7250_AUC [10, 36]: 461.458 | MCC_Avg_AUC ([11]; MIPE library, mean AUC of six MCC cell lines, sheet S2E): 419.775 | Control-VP-MCC ([12]; MIPE library, Control AUC minus VP-MCC AUC (therapeutic window), sheet S2E): 60.3261 | VP-MCC_Avg_AUC ([12]; MIPE library, mean AUC of VP-MCC cell lines, sheet S2E): 410.488 | Control-VN-MCC ([13]; MIPE library, Control AUC minus VN-MCC AUC (therapeutic window), sheet S2E): 41.7531 | VN-MCC_Avg_AUC ([13]; MIPE library, mean AUC of VN-MCC cell lines, sheet S2E): 429.061 | Control_Avg_AUC ([14]; MIPE library, mean AUC of control cell lines, sheet S2E): 470.814 | Control-MCC ([15]; MIPE library, Control AUC minus MCC AUC (therapeutic window), sheet S2E): 51.0396

Cn1c(=O)c2c(ncn2CCO)n(C)c1=O [Etofylline]
MCC13_AUC [1, 16]: 458.423 | MCC26_AUC ([2]; NPC library; qHTS dose-response AUC, MCC26): 435.802 | UISO_AUC [3, 18]: 431.565 | WAGA_AUC [4, 19]: 399.645 | MKL1_AUC [5, 20]: 387.045 | MKL2_AUC [6, 21]: 336.333 | HACAT_AUC [7, 22]: 491.237 | HEK293T_AUC [8, 24]: 445.08 | NIH3T3_AUC [9, 25]: 458.11 | CRL7250_AUC [10, 26]: 458.019 | MCC_Avg_AUC [11, 28]: 408.136 | VP-MCC_Avg_AUC [12, 29]: 374.341 | Control-VP-MCC [12, 30]: 88.7707 | VN-MCC_Avg_AUC [13, 31]: 441.93 | Control-VN-MCC [13, 32]: 21.1816 | Control_Avg_AUC [14, 33]: 463.112 | Control-MCC [15, 34]: 54.9761
